Measurements taken from patent US7807721B2, “Compositions for inhibiting the scent tracking ability of mosquitoes in environmentally defined three dimensional spaces” (Biosensory Inc., priority 1999, dated 2010).

How the values were obtained:
[1] = test system: adult female Aedes aegypti mosquitoes; assay: Dual-port olfactometer tests of Example 2: test compound + CS vs CS, and Deet vs inhibitor; format: in vivo
Excerpt: (§1) A triple cage, dual-port olfactometer, illustrated and described in detail by Posey et al. J. Med. Entomol. 35(3), 330-334 (1998), was used to study the responses of 6 to 8 day old, laboratory-reared adult female Aedes aegypti mosquitoes. This system allows mosquitoes to choose between two different stimuli. The olfactometer is constructed of clear acrylic, comprises three test chambers in a tiered configuration, has paired removable sleeves, and mosquito traps on each chamber, and is equipped with a filtered external air supply system that allows precise temperature (+/−0.5° C.) and relative humidity (+/−2%) control. Only one chamber at a time was used for the tests. Outside air was conditioned prior to entry through the choice ports, the mosquito trap, and the olfactometer by passing through a series of charcoal filters and then heated and humidified, if necessary. One hour before initiation of tests, about 75 female Ae. aegypti mosquitoes were aspirated into the olfactometer chamber and allowed to acclimatize for that one hour before testing. Test compounds were placed into test ports upwind of the traps and olfactometer chamber. A completely randomized design was used for cage position. Competitive tests were conducted. In these competitive tests, the inhibiting compound was placed into one of the ports (treatment port); the second port (check port) had the same apparatus but no chemical inhibiting compound. In these tests, inhibiting compounds were presented in glass Pyrex petri dishes (60×15 mm) that had been cleaned and sterilized in a vacuum oven and then handled only with gloves to minimize any chance of contamination and placed into one port (Treatment Port) along with another petri dish containing 500 μL of Clara Sludge (CS), a synthetic human attractant. The other port (Check Port) contained an untreated petri with no inhibiting compound and a second petri dish containing 500 μL CS. Various concentrations (25, 100, 250, 500 and 1000 μL) of the compounds were used in these tests. Each test was conducted for a period of 3 minutes; the number of mosquitoes trapped in the baited ports, and those remaining in the cage, were counted. The data are then presented as a percentage of total mosquitoes in the cage that were attracted to each port and the percentage of mosquitoes remaining in the cage (i.e., not attracted to either port). Tests identical to that described in Example 1 were conducted with test compounds when employed together with the synthetic human attractant (CS) in a port. The test combinations were: • (1) CS vs. CS (comparison) • (2) dehydrolinalool+CS vs. CS • (3) linalool+CS vs. CS Also for comparison purposes, a known topical mosquito repellent, Deet, namely N,N-diethyl-3-methylbenzamide, was employed to compare to linalool and to dehydrolinalool. Each test compound was tested at 100, 250 and 500 μL. The results are again presented as percent mosquitoes attracted to Ports 1 or 2 or not attracted to either port.

[2] = test system: adult female Aedes aegypti mosquitoes; assay: Competitive tests in triple cage, dual-port olfactometer: inhibitor + Clara Sludge (CS) human attractant port vs CS-only port; format: in vivo; conditions: for % Mosquitoes Entering Treatment Port (Inhibitor Port): 3 min test; for % Mosquitoes Entering Control Port (Human Scent Port): control port 500 μL CS only; for % Mosquitoes Entering Control Port (Human Scent Port) / % Mosquitoes Remaining in Cage: 3 min
Excerpt: as §1, with “port).” for “port). Tests identical to that described in Example 1 were conducted with test compounds when employed together with the synthetic human attractant (CS) in a port. The test combinations were: • (1) CS vs. CS (comparison) • (2) dehydrolinalool+CS vs. CS • (3) linalool+CS vs. CS Also for comparison purposes, a known topical mosquito repellent, Deet, namely N,N-diethyl-3-methylbenzamide, was employed to compare to linalool and to dehydrolinalool. Each test compound was tested at 100, 250 and 500 μL. The results are again presented as percent mosquitoes attracted to Ports 1 or 2 or not attracted to either port.”

[3] = 100 micro liter, Port 1 Deet vs Port 2 dehydrolinalool
[4] = 100 micro liter, Port 1 Deet vs Port 2 linalool
[5] = 250 micro liter, Port 1 Deet vs Port 2 dehydrolinalool
[6] = 250 micro liter, Port 1 Deet vs Port 2 linalool
[7] = 500 micro liter, Port 1 Deet vs Port 2 dehydrolinalool
[8] = 500 micro liter, Port 1 Deet vs Port 2 linalool
[9] = 100 micro liter, Port 1 test compound vs Port 2 human scent
[10] = 250 micro liter, Port 1 test compound vs Port 2 human scent
[11] = 500 micro liter, Port 1 test compound vs Port 2 human scent

CCN(CC)C(=O)c1cccc(C)c1 [Deet, N,N-diethyl-3-methylbenzamide, reference compound]
% Mosquitoes Entering Port 1 (Deet) [1, 3]: 60.1% | % Mosquitoes Remaining in Cage [1, 3]: 19.8% | % Mosquitoes Entering Port 1 (Deet) [1, 4]: 56.3% | % Mosquitoes Remaining in Cage [1, 4]: 26.2% | % Mosquitoes Entering Port 1 (Deet) [1, 5]: 48.8% | % Mosquitoes Remaining in Cage [1, 5]: 29.2% | % Mosquitoes Entering Port 1 (Deet) [1, 6]: 48.1% | % Mosquitoes Remaining in Cage [1, 6]: 26.2% | % Mosquitoes Entering Port 1 (Deet) [1, 7]: 42.1% | % Mosquitoes Remaining in Cage [1, 7]: 27.6% | % Mosquitoes Entering Port 1 (Deet) [1, 8]: 49.5% | % Mosquitoes Remaining in Cage [1, 8]: 27.3%

C#CC(C)(O)CCC=C(C)C (stereo not shown) [Dehydrolinalool, dehydrolinalool]
% Mosquitoes Entering Treatment Port (Inhibitor Port) ([2]; 25 micro liter test compound + 500 μL CS in treatment port): 30.23% | % Mosquitoes Entering Control Port (Human Scent Port) ([2]; 25 micro liter test compound in treatment port): 50.77% | % Mosquitoes Remaining in Cage ([2]; 25 micro liter test compound): 19% | % Mosquitoes Entering Treatment Port (Inhibitor Port) ([2]; 100 micro liter test compound + 500 μL CS in treatment port): 31.13% | % Mosquitoes Entering Control Port (Human Scent Port) ([2]; 100 micro liter test compound in treatment port): 53.87% | % Mosquitoes Remaining in Cage ([2]; 100 micro liter test compound): 15% | % Mosquitoes Entering Treatment Port (Inhibitor Port) ([2]; 250 micro liter test compound + 500 μL CS in treatment port): 22.6% | % Mosquitoes Entering Control Port (Human Scent Port) ([2]; 250 micro liter test compound in treatment port): 44.6% | % Mosquitoes Remaining in Cage ([2]; 250 micro liter test compound): 32.8% | % Mosquitoes Entering Treatment Port (Inhibitor Port) ([2]; 500 micro liter test compound + 500 μL CS in treatment port): 24.8% | % Mosquitoes Entering Control Port (Human Scent Port) ([2]; 500 micro liter test compound in treatment port): 56.47% | % Mosquitoes Remaining in Cage ([2]; 500 micro liter test compound): 24.18% | % Mosquitoes Entering Treatment Port (Inhibitor Port) ([2]; 1000 micro liter test compound + 500 μL CS in treatment port): 26.11% | % Mosquitoes Entering Control Port (Human Scent Port) ([2]; 1000 micro liter test compound in treatment port): 42.76% | % Mosquitoes Remaining in Cage ([2]; 1000 micro liter test compound): 27.12% | inhibition of the ability of mosquitoes to locate the human scent (CS) ([2]; all tested concentration levels (25-1000 μL)): greatly inhibit | % Mosquitoes Entering Port 2 (dehydrolinalool) [1, 3]: 20.1% | % Mosquitoes Remaining in Cage [1, 3]: 19.8% | % Mosquitoes Entering Port 1 (test compound + CS) [1, 9]: 18.1% | % Mosquitoes Entering Port 2 (human scent) [1, 9]: 63% | % Mosquitoes Remaining in Cage [1, 9]: 18.9% | % Mosquitoes Entering Port 2 (dehydrolinalool) [1, 5]: 22.5% | % Mosquitoes Remaining in Cage [1, 5]: 29.2% | % Mosquitoes Entering Port 1 (test compound + CS) [1, 10]: 20.1% | % Mosquitoes Entering Port 2 (human scent) [1, 10]: 59.2% | % Mosquitoes Remaining in Cage [1, 10]: 20.6% | % Mosquitoes Entering Port 2 (dehydrolinalool) [1, 7]: 30.3% | % Mosquitoes Remaining in Cage [1, 7]: 27.6% | % Mosquitoes Entering Port 1 (test compound + CS) [1, 11]: 20.6% | % Mosquitoes Entering Port 2 (human scent) [1, 11]: 55.5% | % Mosquitoes Remaining in Cage [1, 11]: 23.9%
